System: MV-4-11 cells
Assay: Gene expression microarray analysis (Affymetrix PrimeView) and GSEA
Format: cell-based, human
Design: RFU PODN (11730768_x_at) / Fold change /veh PODN (11730768_x_at) / RFU LINC00158 (11744669_a_at) / Fold change /veh LINC00158 (11744669_a_at) / RFU DUSP10 (11751237_a_at) / Fold change /veh DUSP10 (11751237_a_at) / RFU ID3 (11757404_x_at) / Fold change /veh ID3 (11757404_x_at) / RFU PLEKHG5 (11737974_s_at) / Fold change /veh PLEKHG5 (11737974_s_at) / RFU LRRC4B (11730491_at) / Fold change /veh LRRC4B (11730491_at) / RFU GIMAP4 (11747438_a_at) / Fold change /veh GIMAP4 (11747438_a_at) / RFU KRT8 (11758183_x_at) / Fold change /veh KRT8 (11758183_x_at) / RFU CNN1 (11734310_a_at) / Fold change /veh CNN1 (11734310_a_at) / RFU VPS37D (11726825_at) / Fold change /veh VPS37D (11726825_at) / RFU C10orf10 (11716522_x_at) / Fold change /veh C10orf10 (11716522_x_at) / RFU KIR2DL2 /// KIR2DL4 /// KIR2DL5A /// KIR2DL5B /// KIR2DS1 /// KIR2DS2 /// KIR2DS3 /// KIR2DS4 /// KIR3DL3 /// KIR3DL3 /// KIR3DS1 (11738374_at) / Fold change /veh KIR2DL2 /// KIR2DL4 /// KIR2DL5A /// KIR2DL5B /// KIR2DS1 /// KIR2DS2 /// KIR2DS3 /// KIR2DS4 /// KIR3DL3 /// KIR3DL3 /// KIR3DS1 (11738374_at) / RFU C1QL1 (11718748_at) / Fold change /veh C1QL1 (11718748_at) / RFU TMPRSS4 (11747572_a_at) / Fold change /veh TMPRSS4 (11747572_a_at) / RFU HAMP (11756126_x_at) / Fold change /veh HAMP (11756126_x_at) / RFU RNFT2 (11725882_a_at) / Fold change /veh RNFT2 (11725882_a_at) / RFU NR4A2 (11747474_a_at) / Fold change /veh NR4A2 (11747474_a_at) / RFU ABCC12 (11746883_a_at) / Fold change /veh ABCC12 (11746883_a_at) / RFU TMEM136 (11760407_x_at) / Fold change /veh TMEM136 (11760407_x_at) / RFU CLDN22 /// WWC2 (11732394_at) / Fold change /veh CLDN22 /// WWC2 (11732394_at) / RFU HLA-DPB1 (11760878_x_at) / Fold change /veh HLA-DPB1 (11760878_x_at) / RFU SPINT1 (11716480_a_at) / Fold change /veh SPINT1 (11716480_a_at) / RFU GAP43 (11754022_s_at) / Fold change /veh GAP43 (11754022_s_at) / RFU A4GNT (11735810_at) / Fold change /veh A4GNT (11735810_at) / RFU PRB3 (11715151_x_at) / Fold change /veh PRB3 (11715151_x_at) / RFU TUBB4B (11761932_at) / Fold change /veh TUBB4B (11761932_at) / RFU CAPN14 (11732068_a_at) / Fold change /veh CAPN14 (11732068_a_at) / RFU TMCC2 (11721928_a_at) / Fold change /veh TMCC2 (11721928_a_at) / RFU IRGQ (11745062_a_at) / Fold change /veh IRGQ (11745062_a_at) / RFU FAM174B (11720279_a_at) / Fold change /veh FAM174B (11720279_a_at) / RFU TMPRSS4 (11748680_a_at) / Fold change /veh TMPRSS4 (11748680_a_at) / RFU FAM212B (11763350_a_at) / Fold change /veh FAM212B (11763350_a_at) / RFU PLEKHG5 (11743358_a_at) / Fold change /veh PLEKHG5 (11743358_a_at) / RFU ZSCAN30 (11745921_a_at) / Fold change /veh ZSCAN30 (11745921_a_at) / RFU CMKLR1 (11741424_a_at) / Fold change /veh CMKLR1 (11741424_a_at) / RFU LOC101060620 /// MAPK8IP1 (11723275_at) / Fold change /veh LOC101060620 /// MAPK8IP1 (11723275_at) / RFU SPTSSB (11747773_x_at) / Fold change /veh SPTSSB (11747773_x_at) / RFU PRSS12 (11739890_at) / Fold change /veh PRSS12 (11739890_at) / RFU BIN1 (11741810_x_at) / Fold change /veh BIN1 (11741810_x_at) / RFU WNT11 (11732464_a_at) / Fold change /veh WNT11 (11732464_a_at) / RFU C10orf10 (11716521_a_at) / Fold change /veh C10orf10 (11716521_a_at) / RFU C5orf56 (11738089_at) / Fold change /veh C5orf56 (11738089_at) / RFU CYB561 (11721691_x_at) / Fold change /veh CYB561 (11721691_x_at) / RFU ANKRD19P (11752326_a_at) / Fold change /veh ANKRD19P (11752326_a_at) / RFU OR2T12 /// OR2T33 /// OR2T8 (11738714_s_at) / Fold change /veh OR2T12 /// OR2T33 /// OR2T8 (11738714_s_at) / RFU VCAN (11748164_a_at) / Fold change /veh VCAN (11748164_a_at) / RFU JSRP1 (11732532_at) / Fold change /veh JSRP1 (11732532_at) / RFU KRTAP10-11 (11738290_x_at) / Fold change /veh KRTAP10-11 (11738290_x_at) / RFU MYO3A (11730013_a_at) / Fold change /veh MYO3A (11730013_a_at) / RFU EBF3 (11725865_a_at) / Fold change /veh EBF3 (11725865_a_at) / RFU CAMK2N1 (11719241_x_at) / Fold change /veh CAMK2N1 (11719241_x_at) / RFU C5orf56 (11738088_a_at) / Fold change /veh C5orf56 (11738088_a_at) / RFU OLFML3 (11715873_a_at) / Fold change /veh OLFML3 (11715873_a_at) / RFU LOC100653217 /// NTM (11731650_a_at) / Fold change /veh LOC100653217 /// NTM (11731650_a_at) / RFU MAPK11 (11762145_a_at) / Fold change /veh MAPK11 (11762145_a_at) / RFU FIZ1 (11724087_x_at) / Fold change /veh FIZ1 (11724087_x_at) / RFU OASL (11726364_x_at) / Fold change /veh OASL (11726364_x_at) / RFU SOX15 (11748057_x_at) / Fold change /veh SOX15 (11748057_x_at) / RFU CD79A (11719716_a_at) / Fold change /veh CD79A (11719716_a_at) / RFU HIST1H1D (11736915_at) / Fold change /veh HIST1H1D (11736915_at) / RFU CASKIN2 (11723855_a_at) / Fold change /veh CASKIN2 (11723855_a_at) / RFU LOC730098 (11760151_x_at) / Fold change /veh LOC730098 (11760151_x_at) / RFU OR4N2 (11742367_at) / Fold change /veh OR4N2 (11742367_at) / RFU PRRT2 (11749266_a_at) / Fold change /veh PRRT2 (11749266_a_at) / RFU SNX32 (11753110_a_at) / Fold change /veh SNX32 (11753110_a_at) / RFU CDHR5 (11726645_a_at) / Fold change /veh CDHR5 (11726645_a_at) / RFU RCAN1 (11760418_a_at) / Fold change /veh RCAN1 (11760418_a_at) / RFU FAM167A (11723789_a_at) / Fold change /veh FAM167A (11723789_a_at) / RFU FAM26E (11764081_at) / Fold change /veh FAM26E (11764081_at) / RFU ISYNA1 (11749810_s_at) / Fold change /veh ISYNA1 (11749810_s_at) / RFU ACY1 (11761880_at) / Fold change /veh ACY1 (11761880_at) / RFU 11764098_at / Fold change /veh 11764098_at / RFU SAMD14 (11745864_x_at) / Fold change /veh SAMD14 (11745864_x_at) / RFU NPB (11741838_a_at) / Fold change /veh NPB (11741838_a_at) / RFU TMPRSS6 (11731388_a_at) / Fold change /veh TMPRSS6 (11731388_a_at) / RFU KRTAP10-2 (11738614_at) / Fold change /veh KRTAP10-2 (11738614_at) / RFU ARHGAP8 /// PRR5-ARHGAP8 (11727945_x_at) / Fold change /veh ARHGAP8 /// PRR5-ARHGAP8 (11727945_x_at) / RFU KRTAP5-7 /// NADSYN1 (11734609_at) / Fold change /veh KRTAP5-7 /// NADSYN1 (11734609_at) / RFU RASL12 (11751679_a_at) / Fold change /veh RASL12 (11751679_a_at) / RFU CDKN2B (11736163_a_at) / Fold change /veh CDKN2B (11736163_a_at) / RFU PRF1 (11729649_at) / Fold change /veh PRF1 (11729649_at) / RFU, ZNF638 /// ZNF638-IT1 / Fold change vs veh, ZNF638 /// ZNF638-IT1 / RFU, PANK3 / Fold change vs veh, PANK3 / RFU, SH3YL1 / Fold change vs veh, SH3YL1 / RFU, ZEB2 / Fold change vs veh, ZEB2 / RFU, NRIP1 / Fold change vs veh, NRIP1 / RFU, PTTG1IP / Fold change vs veh, PTTG1IP / RFU, CAPN2 / Fold change vs veh, CAPN2 / RFU, MED14 / Fold change vs veh, MED14 / RFU, SNORA58 / Fold change vs veh, SNORA58 / RFU, C1orf63 / Fold change vs veh, C1orf63 / RFU, LRRFIP1 / Fold change vs veh, LRRFIP1 / RFU, NDUFAF7 / Fold change vs veh, NDUFAF7 / RFU, SLC12A2 / Fold change vs veh, SLC12A2 / RFU, IBTK / Fold change vs veh, IBTK / RFU, ESF1 / Fold change vs veh, ESF1 / Fold change vs veh, TMEM50B / RFU, TAOK1 / Fold change vs veh, TAOK1 / RFU, ACBD3 / Fold change vs veh, ACBD3 / RFU, TMA16 / Fold change vs veh, TMA16 / RFU, RWDD3 / Fold change vs veh, RWDD3 / RFU, BCAT1 / Fold change vs veh, BCAT1 / RFU, EDEM3 / Fold change vs veh, EDEM3 / RFU, TMEM33 / Fold change vs veh, TMEM33 / RFU, WDR75 / Fold change vs veh, WDR75 / RFU, AHCTF1 / Fold change vs veh, AHCTF1 / RFU, TFRC / Fold change vs veh, TFRC / RFU, ZDHHC17 / Fold change vs veh, ZDHHC17 / RFU, NOM1 / Fold change vs veh, NOM1 / RFU, ARL8B / Fold change vs veh, ARL8B / RFU, ZBTB11 / Fold change vs veh, ZBTB11 / RFU, TAMM41 / Fold change vs veh, TAMM41 / RFU, KIAA1704 /// LOC100996395 / Fold change vs veh, KIAA1704 /// LOC100996395 / RFU, ING1 / Fold change vs veh, ING1 / RFU, TRMT61B / Fold change vs veh, TRMT61B / RFU, FUBP3 / Fold change vs veh, FUBP3 / RFU, TP53 / Fold change vs veh, TP53 / RFU, TNKS2 / Fold change vs veh, TNKS2 / RFU, ZFP14 / Fold change vs veh, ZFP14 / RFU, ACTR2 / Fold change vs veh, ACTR2 / RFU, PPP3R1 / Fold change vs veh, PPP3R1 / RFU, PIK3R1 / Fold change vs veh, PIK3R1 / RFU, HNRNPA1 / Fold change vs veh, HNRNPA1 / RFU, RNF170 / Fold change vs veh, RNF170 / RFU, ZNF28 / Fold change vs veh, ZNF28 / RFU, RNGTT / Fold change vs veh, RNGTT / RFU, OGT / Fold change vs veh, OGT / RFU, BRD1 / Fold change vs veh, BRD1 / RFU, MARS / Fold change vs veh, MARS / RFU, ZNF655 / Fold change vs veh, ZNF655 / RFU, FAHD1 / Fold change vs veh, FAHD1 / RFU, BDP1 / Fold change vs veh, BDP1 / RFU, LRRCC1 / Fold change vs veh, LRRCC1 / RFU, ARID1A / Fold change vs veh, ARID1A / RFU, ZNF146 / Fold change vs veh, ZNF146 / RFU, ZNF330 / Fold change vs veh, ZNF330 / RFU, GPN3 / Fold change vs veh, GPN3 / RFU, C9orf123 / Fold change vs veh, C9orf123 / RFU, N4BP2L2 / Fold change vs veh, N4BP2L2 / RFU, ARFIP1 / Fold change vs veh, ARFIP1 / RFU, FAM179B / Fold change vs veh, FAM179B / RFU, BCL10 / Fold change vs veh, BCL10 / RFU, UHRF1BP1L / Fold change vs veh, UHRF1BP1L / RFU, BET1 / Fold change vs veh, BET1 / RFU, CNOT2 / Fold change vs veh, CNOT2 / RFU, ZNF268 / Fold change vs veh, ZNF268 / Fold change vs veh, ZNF507 / RFU, DGCR2 / Fold change vs veh, DGCR2 / RFU, WDSUB1 / Fold change vs veh, WDSUB1 / Fold change vs veh, HSP90B1 /// MIR3652 / RFU, ADSS / Fold change vs veh, ADSS / RFU, GK / Fold change vs veh, GK / RFU, ZNF148 / Fold change vs veh, ZNF148 / RFU, TAF9 / Fold change vs veh, TAF9 / RFU, SLC1A5 / Fold change vs veh, SLC1A5 / RFU, SLMO2 / Fold change vs veh, SLMO2 / RFU, ABCC4 / Fold change vs veh, ABCC4 / RFU, LOC101060439 /// RAP1B / Fold change vs veh, LOC101060439 /// RAP1B / RFU, RFX7 / Fold change vs veh, RFX7 / RFU, GTPBP10 / Fold change vs veh, GTPBP10 / RFU, CNEP1R1 / Fold change vs veh, CNEP1R1 / RFU, BIVM-ERCC5 /// ERCC5 / Fold change vs veh, BIVM-ERCC5 /// ERCC5 / RFU, ILF3 / Fold change vs veh, ILF3 / RFU 11762660_at / Fold change /veh 11762660_at / RFU VCAN (11757783_s_at) / Fold change /veh VCAN (11757783_s_at) / RFU DDX43 (11728927_at) / Fold change /veh DDX43 (11728927_at) / RFU KRT8 (11758188_x_at) / Fold change /veh KRT8 (11758188_x_at) / RFU NKD1 (11759106_at) / Fold change /veh NKD1 (11759106_at) / RFU SRD5A1 (11742802_a_at) / Fold change /veh SRD5A1 (11742802_a_at) / RFU TPSAB1 /// TPSB2 (11721975_s_at) / Fold change /veh TPSAB1 /// TPSB2 (11721975_s_at) / RFU GSTM3 (11746129_a_at) / Fold change /veh GSTM3 (11746129_a_at) / RFU IL23R (11737362_x_at) / Fold change /veh IL23R (11737362_x_at) / RFU TMEM51 (11727254_a_at) / Fold change /veh TMEM51 (11727254_a_at) / RFU PIWIL2 (11732686_x_at) / Fold change /veh PIWIL2 (11732686_x_at) / RFU ORM1 (11744905_x_at) / Fold change /veh ORM1 (11744905_x_at) / RFU CCDC152 (11743942_at) / Fold change /veh CCDC152 (11743942_at) / RFU ECM1 (11717891_a_at) / Fold change /veh ECM1 (11717891_a_at) / RFU IL23R (11748794_a_at) / Fold change /veh IL23R (11748794_a_at) / RFU TNFAIP8L3 (11732012_x_at) / Fold change /veh TNFAIP8L3 (11732012_x_at) / RFU MBOAT4 (11741988_at) / Fold change /veh MBOAT4 (11741988_at) / RFU 11764193_at / Fold change /veh 11764193_at / RFU TMEM53 (11763286_at) / Fold change /veh TMEM53 (11763286_at) / RFU MAGEB2 (11727129_at) / Fold change /veh MAGEB2 (11727129_at) / RFU TMEM200A (11744735_a_at) / Fold change /veh TMEM200A (11744735_a_at) / RFU CCDC152 (11751479_a_at) / Fold change /veh CCDC152 (11751479_a_at) / RFU FAM211A (11726209_a_at) / Fold change /veh FAM211A (11726209_a_at) / RFU RGS16 (11746705_a_at) / Fold change /veh RGS16 (11746705_a_at) / RFU VCAN (11755009_s_at) / Fold change /veh VCAN (11755009_s_at) / RFU RHOB (11743442_s_at) / Fold change /veh RHOB (11743442_s_at) / RFU RGS16 (11720943_a_at) / Fold change /veh RGS16 (11720943_a_at) / RFU RGS16 (11720944_at) / Fold change /veh RGS16 (11720944_at) / RFU, VPS4B / Fold change vs veh, VPS4B / RFU, CREB1 / Fold change vs veh, CREB1 / RFU, DNAJC13 / Fold change vs veh, DNAJC13 / RFU, GNAQ / Fold change vs veh, GNAQ / RFU, CDK5R1 / Fold change vs veh, CDK5R1 / RFU, ZRANB3 / Fold change vs veh, ZRANB3 / RFU, CUL4A / Fold change vs veh, CUL4A / RFU, CCNY / Fold change vs veh, CCNY / RFU, UFL1 / Fold change vs veh, UFL1 / RFU, COG3 / Fold change vs veh, COG3 / RFU, DIAPH2 / Fold change vs veh, DIAPH2 / RFU, SKA2 / Fold change vs veh, SKA2 / RFU, AFF3 / Fold change vs veh, AFF3 / RFU, LMF1 / Fold change vs veh, LMF1 / RFU, IPO11 / Fold change vs veh, IPO11 / RFU, DFFB / Fold change vs veh, DFFB / RFU, FOXP1 / Fold change vs veh, FOXP1 / RFU, CARD8 / Fold change vs veh, CARD8 / RFU, STRN3 / Fold change vs veh, STRN3 / RFU, ADK / Fold change vs veh, ADK / RFU, RASSF2 / Fold change vs veh, RASSF2 / RFU, WIPF1 / Fold change vs veh, WIPF1 / RFU, LARP1B / Fold change vs veh, LARP1B / RFU, RASA1 / Fold change vs veh, RASA1 / RFU, RB1 / Fold change vs veh, RB1 / RFU, PPFIA1 / Fold change vs veh, PPFIA1 / RFU, MAT2A / Fold change vs veh, MAT2A / RFU, CCT5 / Fold change vs veh, CCT5 / RFU, WDR92 / Fold change vs veh, WDR92 / RFU, CUX1 / Fold change vs veh, CUX1 / RFU, TTC7A / Fold change vs veh, TTC7A / RFU, TMEM135 / Fold change vs veh, TMEM135 / RFU, DEPTOR / Fold change vs veh, DEPTOR / RFU, CPM / Fold change vs veh, CPM / RFU, DNAJB6 / Fold change vs veh, DNAJB6 / RFU, CACNA2D3 / Fold change vs veh, CACNA2D3 / RFU, DTX4 / Fold change vs veh, DTX4 / RFU, TFCP2 / Fold change vs veh, TFCP2 / RFU, GMCL1 /// GMCL1P1 / Fold change vs veh, GMCL1 /// GMCL1P1 / RFU, AEBP2 / Fold change vs veh, AEBP2 / RFU, SNHG1 /// SNORD22 /// SNORD25 /// SNORD26 /// SNORD27 /// SNORD28 /// SNORD29 /// SNORD31 / Fold change vs veh, SNHG1 /// SNORD22 /// SNORD25 /// SNORD26 /// SNORD27 /// SNORD28 /// SNORD29 /// SNORD31 / Fold change (Aza/veh), C12orf56 (ProbeSet 11735607_a_at) / Fold change (ACY-1035/veh), C12orf56 (ProbeSet 11735607_a_at) / Fold change (Aza/veh), FGFR1OP (ProbeSet 11751329_s_at) / Fold change (ACY-1035/veh), FGFR1OP (ProbeSet 11751329_s_at) / Fold change (Aza/veh), VPS36 (ProbeSet 11739960_a_at) / Fold change (ACY-1035/veh), VPS36 (ProbeSet 11739960_a_at) / RFU SYPL1 (11715823_x_at) / Fold change /veh SYPL1 (11715823_x_at) / RFU IGFBP7 (11715501_s_at) / Fold change /veh IGFBP7 (11715501_s_at) / RFU REEP3 (11722064_at) / Fold change /veh REEP3 (11722064_at) / RFU IGLL1 (11728026_x_at) / Fold change /veh IGLL1 (11728026_x_at): dose or concentration left out as unconfirmed
Conditions: MV-4-11 cells, 48 hours

In the case of `Nc1ccc(-c2cccs2)cc1NC(=O)c1ccc2c(c1)cc(C1CC1)n2CCN1CCOCC1` [ACY-1035], the “RFU FIZ1 (11724087_x_at)” value is reported as 31.13 RFU.

Reference: publication PMC5218480 (PLoS ONE, 2017)
